In ChEMBL document CHEMBL1201862, “PubChem BioAssay data set” (2004):
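These data come from cells grown in 96-well plates and exposed to compound for 48 hours at five concentrations. At the GI50, growth is halved.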 Calls of active or inactive are those of the source. Rule as the data show it: active = GI50 up to about 1.1 µM and inactive = higher.

Experiments:
Assay in all cases: NCI tumour cell line growth inhibition, 48 h
U-251 = test system: U-251
SK-MEL-2 = test system: SK-MEL-2
NCI-H460 = test system: NCI-H460
CAKI-1 = test system: CAKI-1
K562 = test system: K562
UO-31 = test system: UO-31
MDA-MB-231 = test system: MDA-MB-231
OVCAR-3 = test system: OVCAR-3
UACC-257 = test system: UACC-257
RPMI-8226 = test system: RPMI-8226
MDA-MB-435 = test system: MDA-MB-435
SK-MEL-28 = test system: SK-MEL-28
UACC-62 = test system: UACC-62
HL-60 = test system: HL-60
SF-539 = test system: SF-539
RXF 393 = test system: RXF 393
M14 = test system: M14
KM12 = test system: KM12
LOX IMVI = test system: LOX IMVI

Measured: GI50

Cc1ccc(/N=N/c2c(O)c(C(=O)O)cc3ccccc23)cc1C
inactive: U-251 80.7 µM | SK-MEL-2 > 100 µM | NCI-H460 > 100 µM | CAKI-1 > 100 µM | K562 82.6 µM | UO-31 > 100 µM | MDA-MB-231 > 100 µM | OVCAR-3 > 100 µM | UACC-257 > 100 µM | RPMI-8226 > 100 µM | MDA-MB-435 > 100 µM | SK-MEL-28 > 100 µM | UACC-62 > 100 µM | HL-60 46.3 µM | SF-539 > 100 µM | RXF 393 > 100 µM | M14 > 100 µM | KM12 > 100 µM

CCCCCC(C[N+]1(C)CCOCC1)C(=O)/C=C/c1ccccc1 (stereo not given)
inactive: U-251 7.67 µM | LOX IMVI 1.76 µM | SK-MEL-2 15.2 µM | NCI-H460 16.4 µM | CAKI-1 16.9 µM | K562 3.34 µM | UO-31 16.1 µM | OVCAR-3 14.4 µM | UACC-257 13.4 µM | RPMI-8226 1.54 µM | SK-MEL-28 16.2 µM | UACC-62 9.59 µM | HL-60 6.89 µM | SF-539 9.79 µM | RXF 393 14.4 µM | M14 11.1 µM | KM12 2.8 µM

CCOC(=O)C1=C(NC)OC/C1=N\NC(=O)c1ccccc1O
inactive: U-251 19.3 µM | LOX IMVI 15.2 µM | SK-MEL-2 12.8 µM | NCI-H460 28.2 µM | CAKI-1 17.1 µM | K562 18.6 µM | UO-31 4.83 µM | OVCAR-3 19.9 µM | UACC-257 1.49 µM | RPMI-8226 32.3 µM | SK-MEL-28 30.8 µM | UACC-62 7.03 µM | HL-60 19.3 µM | SF-539 13 µM | RXF 393 16.7 µM | M14 22.5 µM | KM12 53.2 µM

Cc1nn(C(=O)Cc2ccccc2)c2c1C(c1ccc(Cl)cc1)SC(=N)N2 (stereo not given)
inactive: LOX IMVI > 100 µM | NCI-H460 > 100 µM | CAKI-1 > 100 µM | K562 > 100 µM | MDA-MB-231 > 100 µM | UACC-257 > 100 µM | RPMI-8226 > 100 µM | MDA-MB-435 > 100 µM | SK-MEL-28 > 100 µM | UACC-62 > 100 µM | HL-60 > 100 µM | SF-539 > 100 µM | M14 > 100 µM | KM12 > 100 µM

CCNC(=O)C(O)C1(O)CCC2[C@@H]3CCC4=CC(=O)C=C[C@]4(C)C3[C@@H](O)C[C@@]21C (stereo not given in full)
inactive: U-251 > 100 µM | LOX IMVI > 95.1 µM | SK-MEL-2 > 100 µM | NCI-H460 > 100 µM | CAKI-1 > 100 µM | K562 > 91 µM | UO-31 > 100 µM | OVCAR-3 > 100 µM | UACC-257 > 100 µM | RPMI-8226 22.4 µM | SK-MEL-28 > 100 µM | UACC-62 > 100 µM | HL-60 29.8 µM | SF-539 > 100 µM | RXF 393 > 100 µM | M14 > 100 µM | KM12 > 100 µM

O=C1C=CC(=C(c2ccc(O)cc2)c2ccc(O)cc2)C=C1 [AURIN]
inactive: U-251 5.82 µM | LOX IMVI 10 µM | SK-MEL-2 3.88 µM | NCI-H460 15.8 µM | CAKI-1 15.2 µM | K562 2.94 µM | UO-31 17 µM | OVCAR-3 7 µM | UACC-257 9.68 µM | RPMI-8226 3.85 µM | SK-MEL-28 12.1 µM | UACC-62 3.91 µM | HL-60 2.86 µM | SF-539 11.3 µM | RXF 393 5.07 µM | M14 13.3 µM | KM12 12.8 µM
